Patent publication US20040220277A1, “Enantiomeric amphetamine compositions” (priority 2003, published 2004)

Columns and labels:
Rj: Wistar (Han) rats = assay: EEG sleep-wake cycle in conscious freely-moving rats; format: in vivo, rat
Procedure: They were supplied by Elevage Janvier, 53940 Le Genest-Saint-Isle, France.
Implanted animals were individually placed in transparent perspex boxes in a soundproof, light-controlled, ventilated cabin and were habituated to the recording environment for at least 10 days. Drug-free baseline EEG was recorded for 23 hours. Then the rats were administered vehicle and the EEG recorded for another 23 hours. The next day, rats were treated with one of the 4 amphetamine forms first at the dose of 3 mg/kg, than at the dose of 1 mg/kg. The following variables were measured: latency to the appearance of stable slow-wave sleep (SWS), latency to the first appearance of rapid-eye-movement sleep (REM), the number of REM sleep phases, and the distribution percentage of wake/SWS/REM (sleep architecture).
Test sessions following treatment were individually compared with corresponding control sessions. As no differences were apparent after vehicle, the 2 control sessions with and without vehicle, were averaged.

Wistar Kyoto Rat (WKY) = assay: Behavioural study, multiple Random-Interval/Extinction operant schedule in WKY controls; format: in vivo; conditions: single isomers; for General activity level: FIG. 3; for Impulsiveness: FIG. 4
Text: (§1) Subjects: A total number of 32 male rats, 16 spontaneously hypertensive (SHR) and 16 Wistar/Kyoto (WKY), participated in final part of this study. (Initially, 8 extra rats, 6 SHRs and 2 controls, were trained with a view to select two groups of 16 with the greatest difference in baseline measures. However, there was little difference when comparing all the rats with a selected subgroup—they both separated well.) At the start of testing, the rats were ˜5 wk old and experimentally naive. Young rats were required, as ADHD primarily is a child and adolescent disorder. The SHRs were obtained from Charles River Italy (SHR/Cr1 Ico) and the WKYs from Charles River France (WKY/Nico) as other breeding centers were unable to deliver rats at the time we needed them. At the University of Oslo, the rats were housed individually in 41×25×25 (height) cm transparent cages and had free access to food (BK Standard RM 1 from Beekay Feeds Universal Ltd.).
(§2) The rats had access to water at all times during the habituation period. However, after completing the habituation period, the rats were deprived of water for 21 hr a day. The rats received water as reinforcers during the experimental session and had free access to water for 90 min after the experimental session. The temperature in the housing area was ˜20° C. The light in the housing area was on from 0700 to 1900 hours. The behavioral training took place between 0900 and 1230 hours seven days a week.
(§3) Behavioral apparatus: Sixteen Campden Instruments operant chambers were used in the study. The animal working space in eight of the chambers is 25×25×30 (height) cm and 25×25×20 (height) cm in the other eight chambers. The 2.8-W house light and a fan producing a low masking noise were on during the entire experimental session.
(§4) During training sessions, either one or two retractable levers were used. A 2.8-W cue light was located above each lever. The rats' response consisted of pressing one of the levers with a dead weight of at least 3 g to activate a microswitch. The reinforcers (0.01 ml tap water) were delivered by a liquid dipper located in a small recessed cubicle with a 2.8-W cue light lit when a reinforcer is presented. A 7×5 cm transparent plastic lid separated the cubicle from the rat's working space. The rat could easily open the lid with a light push with the nose or paw. Each chamber was ventilated and placed in a sound-resistant outer housing. A computer and an online system (SPIDER, Paul Fray, Ltd., UK) recorded the behavior and scheduled reinforcers (drops of water).
Before the initiation of the study, the rats were randomized and balanced into two groups. Each group of rats consisted of an equal number of SHRs and WKYs. Each rat was assigned to a specific chamber, which it occupied during all sessions. […]

[1] = system: spontaneously hypertensive rat (SHR); assay: Behavioural study, multiple Random-Interval/Extinction operant schedule in the SHR model of ADHD; format: in vivo; conditions: for General activity level (total number of lever presses), overactivity / Impulsiveness (number of responses with short IRTs): d 0.5-1.5 mg/kg, l 1.0-3.0 mg/kg i.p.; for Sustained attention following transformation: transformed data, saline as baseline, FIG. 6
Text: as §1, §2, §3, §4
Before the initiation of the study, the rats were randomized and balanced into two groups. Each group of rats consisted of an equal number of SHRs and WKYs. Each rat was assigned to a specific chamber, which it occupied during all sessions. The rat was returned to its living cage after each session. All animals were run seven days a week.
Response acquisition: The training period started with a single 30-min habituation session. During the habituation session, the lid between the working space and the reinforcement cubicle was kept open. No lever was present and no cue light above any lever was lit. The house light was on. From this time on the rats were deprived of water for 21 hr a day; this is a moderate, but sufficient deprivation for motivating the animal.
The habituation session was followed by two 30-min magazine training sessions. The lid was taped open, no levers were present, and the house light was on, but the cue lights above the levers were not lit. The computer delivered water on the average every 10s independent of the rat's behavior (a variable-time schedule).
In the next two sessions, the rat was trained to open the lid to gain access to the water. The lid was not taped open, no levers were present and the lights above the levers were not activated. The house light was on. Each lid opening was followed by a presentation of a single drop of water. […]

Rats = assay: Weight gain, food and water intake in rats with 3 hours per day access; format: in vivo, rat; conditions: for Body weight gain: once a day dosing, measured every day; for Water intake: once a day, one hour before 3 h access to food and water; for Food intake: over the 3 hours of access each day, 10 day period
Procedure: Rats were given access to food and water for 3 hours per day. The acclimation period was 10 days. Thereafter, vehicle or doses of l- or d-amphetamine sulphate were administered to the rats once a day one hour before access to food and water. Body weight was measured every day (FIG. 11) before the drug administration and then food intake (FIG. 12) and water intake were measured over the 3 hours each day when the rats had access to the same.

[2] = system: noradrenaline (NA) release, frontal cortex; assay: Basal release of tritiated noradrenaline from rat brain slices in vitro (Brandel system); format: cell-based
Procedure: The DA and NA release is measured in separate brain areas, i.e., in striatum for DA release (evaluating tritiated dopamine) and in the frontal cortex for NA release (evaluating tritiated noradrenaline), using a Brandel system. The brain slices are loaded with the tritiated monoamine (dopamine or noradrenaline) and then superfused to produce basal neurotransmitter release. The slices are also subjected to 2 short periods of electrical stimulation to effect stimulated transmitter release.

[3] = between 4 and 8 h after administration, 3 mg/kg

CC(N)Cc1ccccc1.NC(CC(=O)O)C(=O)O (racemic) [dl-amphetamine aspartate]
REM sleep (Rj: Wistar (Han) rats; between 4 and 8 h after administration, 1 mg/kg): reduced

C[C@H](N)Cc1ccccc1 [d-amphetamine]
General activity level (Wistar Kyoto Rat (WKY)): unaffected | Impulsiveness (Wistar Kyoto Rat (WKY)): unaffected | Delay to onset of REM sleep compared with the other dose (Rj: Wistar (Han) rats; 3 mg/kg): tended to be longer | Effects on SWS and wake compared with the l-isomer (Rj: Wistar (Han) rats; 3 mg/kg, first 4 h of recording): significantly greater than the l-isomer | SWS (Rj: Wistar (Han) rats; [3]): reduced | Waking (Rj: Wistar (Han) rats; [3]): increased | Duration of effects on the sleep-wake cycle (Rj: Wistar (Han) rats; rat, in vivo): longer lasting | Overall potency on the sleep-wake cycle (Rj: Wistar (Han) rats; rat, in vivo): more potent than l-amphetamine | General activity level (total number of lever presses), overactivity ([1]; FIG. 3): reduced | General activity level (total number of lever presses), overactivity ([1]; FIG. 3, listed as D-amphetamine): more than l-amphetamine | Impulsiveness (number of responses with short IRTs) ([1]; FIG. 4): reduced | Impulsiveness (number of responses with short IRTs) ([1]; FIG. 4, listed as D-amphetamine): more than l-amphetamine | Sustained attention following transformation [1]: disappeared | Body weight gain (Rats): dose-related reductions | Water intake (Rats): little effect | Food intake (Rats): decreased food intake over the measured 10 day period

C[C@@H](N)Cc1ccccc1 [l-amphetamine]
General activity level (Wistar Kyoto Rat (WKY)): unaffected | Impulsiveness (Wistar Kyoto Rat (WKY)): unaffected | Sustained attention, performance versus saline ([1]; 2 mg/kg, T-test with dependent samples, p <0.01): performed better | General activity level (total number of lever presses), overactivity ([1]; FIG. 3): reduced | Impulsiveness (number of responses with short IRTs) ([1]; FIG. 4): less efficient than d-amphetamine | Sustained attention (percentage of correct lever choices) ([1]; low doses, untransformed, FIG. 5): improved sustained attention more markedly than low doses of d-amphetamine | Sustained attention following transformation [1]: significant improvement | Body weight gain (Rats): dose-related reductions | Water intake (Rats): little effect | Food intake (Rats): decreased food intake over the first 1-2 days only | Potency in releasing NA from cortex compared with DA from striatum [2]: considerably more potent at releasing NA from cortex than DA from striatum
